≈ marks a conversion by molar mass, not a printed value.
Experiments:
Staphylococcus aureus [1] = experiment: Antibacterial activity against Staphylococcus aureus MTCC 96 at 100 ug incubated for 24 hrs under dark condition by agar well diffusion method; format: functional; details: MTCC 96, 24 h, read-out: IZ
Staphylococcus aureus [2] = experiment: Antibacterial activity against Staphylococcus aureus MTCC 96 incubated for 24 hrs under dark condition by microwell dilution method; format: functional; details: MTCC 96, 24 h
Bacillus subtilis [3] = experiment: Antibacterial activity against Bacillus subtilis MTCC 121 at 100 ug incubated for 24 hrs under dark condition by agar well diffusion method; format: functional; details: MTCC 121, 24 h, read-out: IZ
Bacillus subtilis [4] = experiment: Antibacterial activity against Bacillus subtilis MTCC 121 incubated for 24 hrs under dark condition by microwell dilution method; format: functional; details: MTCC 121, 24 h
Escherichia coli [5] = experiment: Antibacterial activity against Escherichia coli MTCC 1652 at 100 ug incubated for 24 hrs under dark condition by agar well diffusion method; format: functional; details: MTCC 1652, 24 h, read-out: IZ
Escherichia coli [6] = experiment: Antibacterial activity against Escherichia coli MTCC 1652 incubated for 24 hrs under dark condition by microwell dilution method; format: functional; details: MTCC 1652, 24 h
Pseudomonas aeruginosa [7] = experiment: Antibacterial activity against Pseudomonas aeruginosa MTCC 102 at 100 ug incubated for 24 hrs under dark condition by agar well diffusion method; format: functional; details: MTCC 102, 24 h, read-out: IZ
Pseudomonas aeruginosa [8] = experiment: Antibacterial activity against Pseudomonas aeruginosa MTCC 102 incubated for 24 hrs under dark condition by microwell dilution method; format: functional; details: MTCC 102, 24 h
[9] = Antioxidant activity assessed as DPPH radical scavenging activity after 20 mins by UV/VIS Spectrophotometric method; format: functional
[10] = Antioxidant activity assessed as assessed as ferric ion reducing activity by measuring absorbance at 700 nm at 20 ug/ml after 20 mins by spectrophotometric method; format: functional
[11] = Antioxidant activity assessed as total antioxidant capacity measured as ascorbic acid equivalents at 20 ug/ml after 90 mins by phosphomolybdenum method; format: functional
MCF7 = experiment: Cytotoxicity against human MCF7 cells assessed as decrease in cell viability after 48 hrs by MTT assay; format: functional, cell-based; details: MCF7, 48 h
A549 = experiment: Cytotoxicity against human A549 cells assessed as decrease in cell viability after 48 hrs by MTT assay; format: functional, cell-based; details: A549, 48 h
[12] = Antioxidant activity assessed as assessed as ferric ion reducing activity by measuring absorbance at 700 nm at 60 ug/ml after 20 mins by spectrophotometric method; format: functional
[13] = Antioxidant activity assessed as assessed as ferric ion reducing activity by measuring absorbance at 700 nm at 100 ug/ml after 20 mins by spectrophotometric method; format: functional
[14] = Antioxidant activity assessed as total antioxidant capacity measured as ascorbic acid equivalents at 60 ug/ml after 90 mins by phosphomolybdenum method; format: functional
[15] = Antioxidant activity assessed as total antioxidant capacity measured as ascorbic acid equivalents at 100 ug/ml after 90 mins by phosphomolybdenum method; format: functional

Structure (SMILES) | zone of inhibition at 100 µg/disc (Staphylococcus aureus [1]) | MIC (Staphylococcus aureus [2]) | zone of inhibition at 100 µg/disc (Bacillus subtilis [3]) | MIC (Bacillus subtilis [4]) | zone of inhibition at 100 µg/disc (Escherichia coli [5]) | MIC (Escherichia coli [6]) | zone of inhibition at 100 µg/disc (Pseudomonas aeruginosa [7]) | MIC (Pseudomonas aeruginosa [8]) | IC50 [9] | OD [10] | Activity [11] | IC50 (MCF7) | IC50 (A549) | OD [12] | OD [13] | Activity [14] | Activity [15]
O=[N+]([O-])c1cccc2c1NCC1C2=NN(c2ccccc2)C1c1ccc(Cl)cc1 (stereo not given) | 17 mm | 15 µg/mL (≈ 37.1 µM) | 16 mm | 15 µg/mL (≈ 37.1 µM) | 17 mm | 34 µg/mL (≈ 84 µM) | 13 mm | 100 µg/mL (≈ 247 µM) | 202.18 µg/mL (≈ 499 µM) | 0.082 | 4.12 µgequiv/ml | 41.4 µM | 28.7 µM | 0.09 | 0.101 | 6.17 µgequiv/ml | 10.4 µgequiv/ml
N#CC1=C(N)OC2=C(CNc3c2cccc3[N+](=O)[O-])C1c1ccc(Cl)cc1 (stereo not given) | 21 mm | 10 µg/mL (≈ 26.3 µM) | 24 mm | 10 µg/mL (≈ 26.3 µM) | 21 mm | 17 µg/mL (≈ 44.6 µM) | 18 mm | 55.5 µg/mL (≈ 146 µM) | 118.03 µg/mL (≈ 310 µM) | 0.088 | 0.59 µgequiv/ml | 22.7 µM | 28.1 µM | 0.125 | 0.189 | 1.06 µgequiv/ml | 2.57 µgequiv/ml
COc1ccc(C2C3CNc4c(cccc4[N+](=O)[O-])C3=NN2c2ccccc2)cc1OC (stereo not given) | 19 mm | 12.5 µg/mL (≈ 29 µM) | 19 mm | 12.5 µg/mL (≈ 29 µM) | 18 mm | 34 µg/mL (≈ 79 µM) | 16 mm | 55.5 µg/mL (≈ 129 µM) | 169.91 µg/mL (≈ 395 µM) | 0.084 | 4.04 µgequiv/ml | 58.5 µM | 46.4 µM | 0.102 | 0.155 | 8.12 µgequiv/ml | 12.3 µgequiv/ml
Cc1ccc(C2C3CNc4c(cccc4[N+](=O)[O-])C3=NN2c2ccccc2)cc1 (stereo not given) | 12 mm | 50 µg/mL (≈ 130 µM) | 12 mm | 50 µg/mL (≈ 130 µM) | 10 mm | 80.5 µg/mL (≈ 209 µM) | 8 mm | 200 µg/mL (≈ 520 µM) | 185.06 µg/mL (≈ 481 µM) | 0.082 | 3.33 µgequiv/ml | 72.8 µM | 45.8 µM | 0.096 | 0.145 | 5.23 µgequiv/ml | 10.2 µgequiv/ml
Cc1cc(C(C)(C)C)c(O)c(C(C)(C)C)c1 |  |  |  |  |  |  |  |  |  | 0.329 |  |  |  | 0.448 | 0.612 |  | 
O=[N+]([O-])c1cccc2c1NCC1C2=NN(c2ccccc2)C1c1ccc(Br)cc1 (stereo not given) | 16 mm | 15 µg/mL (≈ 33.4 µM) | 19 mm | 12.5 µg/mL (≈ 27.8 µM) | 18 mm | 25.5 µg/mL (≈ 56.8 µM) | 16 mm | 55.5 µg/mL (≈ 124 µM) | 226.97 µg/mL (≈ 505 µM) | 0.09 | 6.12 µgequiv/ml | 34.7 µM | 29.6 µM | 0.096 | 0.107 | 13.7 µgequiv/ml | 18.2 µgequiv/ml
N#CC1=C(N)OC2=C(CNc3c2cc(Cl)cc3[N+](=O)[O-])C1c1ccc(Cl)cc1 (stereo not given) | 15 mm | 17.5 µg/mL (≈ 42.1 µM) | 18 mm | 17.5 µg/mL (≈ 42.1 µM) | 18 mm | 25.5 µg/mL (≈ 61.4 µM) | 16 mm | 55.5 µg/mL (≈ 134 µM) | 132.65 µg/mL (≈ 319 µM) | 0.093 | 3.67 µgequiv/ml | 18 µM | 25.5 µM | 0.125 | 0.156 | 7.08 µgequiv/ml | 13 µgequiv/ml
O=[N+]([O-])c1cc(Cl)cc2c1NCC1C2=NNC1c1ccc(F)cc1 (stereo not given) | 12 mm | 50 µg/mL (≈ 144 µM) | 12 mm | 50 µg/mL (≈ 144 µM) | 12 mm | 80.5 µg/mL (≈ 232 µM) | 8 mm | 200 µg/mL (≈ 577 µM) | 155.12 µg/mL (≈ 447 µM) | 0.08 | 1.21 µgequiv/ml | 98.7 µM | 63.6 µM | 0.088 | 0.098 | 2.49 µgequiv/ml | 5.03 µgequiv/ml
COc1ccc(C2C(C#N)=C(N)OC3=C2CNc2c3cccc2[N+](=O)[O-])cc1 (stereo not given) | 21 mm | 10 µg/mL (≈ 26.6 µM) | 20 mm | 12.5 µg/mL (≈ 33.2 µM) | 20 mm | 17 µg/mL (≈ 45.2 µM) | 21 mm | 37 µg/mL (≈ 98.3 µM) | 65.42 µg/mL (≈ 174 µM) | 0.109 | 7.55 µgequiv/ml | 16.8 µM | 35.6 µM | 0.211 | 0.368 | 15.1 µgequiv/ml | 23.2 µgequiv/ml
CC1(C)S[C@@H]2[C@H](NC(=O)[C@H](N)c3ccccc3)C(=O)N2[C@H]1C(=O)O [AMPICILLIN] | 24 mm | 2.5 µg/mL (≈ 7.15 µM) | 30 mm | 2.5 µg/mL (≈ 7.15 µM) | 24 mm | 8.5 µg/mL (≈ 24.3 µM) | 22 mm | 18.5 µg/mL (≈ 52.9 µM) |  |  |  |  |  |  |  |  | 
COc1ccc(C2C(C#N)=C(N)OC3=C2CNc2c3cccc2[N+](=O)[O-])c(OC)c1 (stereo not given) | 14 mm | 40 µg/mL (≈ 98.4 µM) | 15 mm | 20 µg/mL (≈ 49.2 µM) | 15 mm | 42.5 µg/mL (≈ 105 µM) | 13 mm | 150 µg/mL (≈ 369 µM) | 122.13 µg/mL (≈ 301 µM) | 0.08 | 4.79 µgequiv/ml | 51.2 µM | 44.6 µM | 0.112 | 0.162 | 9.89 µgequiv/ml | 14.2 µgequiv/ml
CCOc1ccc(C2C3CNc4c(cccc4[N+](=O)[O-])C3=NN2c2ccccc2)c(OCC)c1 (stereo not given) | 19 mm | 10 µg/mL (≈ 21.8 µM) | 23 mm | 7.5 µg/mL (≈ 16.4 µM) | 19 mm | 34 µg/mL (≈ 74.2 µM) | 18 mm | 55.5 µg/mL (≈ 121 µM) | 170.8 µg/mL (≈ 373 µM) | 0.068 | 2.46 µgequiv/ml | 65.7 µM | 50.9 µM | 0.085 | 0.098 | 5.75 µgequiv/ml | 9.47 µgequiv/ml
Cc1ccc(C2C(C#N)=C(N)OC3=C2CNc2c3cccc2[N+](=O)[O-])cc1 (stereo not given) | 13 mm | 55 µg/mL (≈ 153 µM) | 12 mm | 50 µg/mL (≈ 139 µM) | 18 mm | 25.5 µg/mL (≈ 70.8 µM) | 15 mm | 55.5 µg/mL (≈ 154 µM) | 183.1 µg/mL (≈ 508 µM) | 0.09 | 1.82 µgequiv/ml | 34.1 µM | 56.3 µM | 0.111 | 0.163 | 4.43 µgequiv/ml | 8.15 µgequiv/ml
N#CC1=C(N)OC2=C(CNc3c2cccc3[N+](=O)[O-])C1c1ccc(Br)cc1 (stereo not given) | 20 mm | 10 µg/mL (≈ 23.5 µM) | 20 mm | 12.5 µg/mL (≈ 29.4 µM) | 18 mm | 25.5 µg/mL (≈ 60 µM) | 20 mm | 37 µg/mL (≈ 87 µM) | 125.08 µg/mL (≈ 294 µM) | 0.071 | 1.5 µgequiv/ml | 24.7 µM | 34.8 µM | 0.095 | 0.134 | 2.98 µgequiv/ml | 5.67 µgequiv/ml
COc1ccc(N2N=C3c4cc(Cl)cc([N+](=O)[O-])c4NCC3C2c2ccc(Cl)cc2)cc1 (stereo not given) | 13 mm | 50 µg/mL (≈ 107 µM) | 14 mm | 50 µg/mL (≈ 107 µM) | 12 mm | 80.5 µg/mL (≈ 172 µM) | 13 mm | 100 µg/mL (≈ 213 µM) | 151.83 µg/mL (≈ 324 µM) | 0.1 | 1.86 µgequiv/ml | 25.8 µM | 32 µM | 0.171 | 0.253 | 4.43 µgequiv/ml | 8.36 µgequiv/ml
COc1ccc(C2C3CNc4c(cccc4[N+](=O)[O-])C3=NN2c2ccccc2)cc1 (stereo not given) | 15 mm | 17.5 µg/mL (≈ 43.7 µM) | 17 mm | 20 µg/mL (≈ 49.9 µM) | 14 mm | 42.5 µg/mL (≈ 106 µM) | 10 mm | 200 µg/mL (≈ 499 µM) | 138.8 µg/mL (≈ 347 µM) | 0.091 | 4.95 µgequiv/ml | 31.3 µM | 40.2 µM | 0.134 | 0.192 | 10.5 µgequiv/ml | 14.3 µgequiv/ml
O=C1O[C@H]([C@@H](O)CO)C(O)=C1O [ASCORBIC ACID] |  |  |  |  |  |  |  |  | 28.02 µg/mL (≈ 159 µM) |  |  |  |  |  |  |  | 
